According to patent publication US10456407B2, “Combination therapy for treating cancer” (Epizyme, Inc., priority 2015, dated 2019):
Like-named read-outs stand apart in the source and are kept apart here.

Assays:
DOHH2 cells = conditions: DOHH2 (WT EZH2 GCB); drug combined with Compound 44
Description: (§1) After 3 days of co-treatment, cell viability was measured via ATP content using CellTiter-Glo®
(§2) Synergy quantification is performed using the Chou-Talalay method^3 for drug combination. The Combination Index (CI) equation offers a quantitative definition for additivity (CI=1), synergism (CI<1), and antagonism (CI>1). This equation used Fa values from a constant ratio of drug combination to determine CI values. […] These Fa-CI plots are generated using the Calcusyn software.
(§3) After 3 days of co-treatment (5 days for Toledo assays), cell viability was measured via ATP content using CellTiter-Glo® (Promega) and luminescence was detected using a SpectraMax M5 microplate reader (Molecular Devices).
(§4) Synergy quantification is performed using the Chou-Talalay method for drug combination (Ref 1). The Combination Index (CI) equation offers a quantitative definition for additivity (CI=1), synergism (CI<1), and antagonism (CI>1). This equation used fractional effect (Fa) values from a constant ratio of drug combination to determine CI values. […] These Fa-CI plots are generated using the Calcusyn for Windows software (Ref2).
(§5) Dose responses were plotted using Graphpad Prism and either 50% or 60% inhibitory concentrations were interpolated from the dose response curves.

WSU-DLCL2 cells = tested on: WSU-DLCL2 cells
Description: as §1, §2, §3, §4, §5

Toledo cells = conditions: Toledo (WT EZH2 ABC); drug combined with Compound 44
Description: as §1, §2, §3, §4, §5

H3K27me3 = conditions: 4 days
Description: Histones were extracted from tumor samples as described above. […] The plates were sealed and incubated overnight at 4° C. The following day, plates were washed 3× with 300 ul/well PBST (PBS+0.05% Tween 20; 10×PBST, KPL #51-14-02) on a Bio Tek plate washer. Plates were blocked with 300 ul/well of diluent (PBS+2% BSA+0.05% Tween 20), incubated at RT for 2 hours, and washed 3× with PBST. All antibodies were diluted in diluent. […] Plates were incubated for 90 min at RT and washed 3× with PBST. […] Plates were washed 4× with PBST. For detection, 100 ul/well of TMB substrate (BioFx Laboratories, #TMBS) was added and plates incubated in the dark at RT for 5 min. Reaction was stopped with 100 ul/well IN H2SO4 Absorbance at 450 nm was read on SpectaMax M5 Microplate reader.

With `C[C@]12C=CC(=O)C=C1CC[C@@H]1[C@@H]2[C@@H](O)C[C@@]2(C)[C@H]1CC[C@]2(O)C(=O)CO` [Prednisolone, prednisolone] the “Summary of Combinations with Compound 44: potency enhanced” value (DOHH2 cells) was “potency enhanced 2x”, the “Summary of Combinations with Compound 44: potency enhanced” value (WSU-DLCL2 cells; WSU-DLCL2 (EZH2 mutant GCB), drug combined with Compound 44) was “potency enhanced 7x” and the “growth inhibition by the drug by itself” value (WSU-DLCL2 cells; WSU-DLCL2, single agent) was “no sensitivity”. For the same compound, the “Summary of Combinations with Compound 44 (combination effect)” value (Toledo cells) was “no effect”, the “effect on H3K27 trimethylation (H3K27me3)” value (from here on “effect … (H3K27me3)”) (H3K27me3; OCI-LY19 cells, at higher doses) was “modest increase” and the “effect … (H3K27me3)” value (H3K27me3; RL cells) was “did not have any effect”. The “effect … (H3K27me3)” value (H3K27me3; WSU-DLCL2 cells) was “did not have any effect”.
